Measurements from patent publication US20260283149A1, “DEVELOPMENT AND APPLICATION OF SYNTHETIC INHIBITORS OF PHOTOSYNTHESIS” (University of Florida Research Foundation, Incorporated, priority 2023, published 2026).

Legend:
[1] = tested on: Synechocystis sp. PCC6803 cells; experiment: Growth inhibition of Synechocystis sp. PCC 6803 in liquid BG-11 medium; format: cell-based; details: for growth inhibition of Synechocystis sp. PCC6803 cells: liquid BG-11 medium with glucose, growth monitored at 700 nm; for inhibitory activity on growth of Synechocystis sp. PCC6803 cells (overall grade): tested at 10 and 25 microM
Protocol: (§1) FIG. 11. Growth inhibition of Arabidopsis and Synechocystis by duroquinone, the unprenylated structural analogue of methyl-plastoquinone-9. (A) Structure of duroquinone. (B) Seven-day-old Arabidopsis plants (Col-0) grown on MS medium containing 1% sucrose (w/v) and 0, 10, 25, 50, or 100 μM duroquinone in 12-hour days (110 μE m^−2 s^−1) at 22° C. (C) Growth curve of Synechocystis sp. PCC 6803 at 30° C. in liquid BG-11 medium containing glucose, and with or without duroquinone. Data are means of three biological replicates±SE. Asterisks indicate significant differences (0 μM vs. 10 μM duroquinone) as determined by Fisher's test (p<α=0.05) from an analysis of variance.
FIG. 13. Growth inhibition of Synechocystis sp. PCC 6803 by structural analogues of methyl-plastoquinone-9. Synechocystis sp. PCC6803 cells were grown in liquid BG-11 medium containing […] (80 μE m^−2 s^−1; 24-hour days; 30° C.). Cell growth was monitored spectrophotometrically at 700 nm.
FIG. 15. Growth curve of Synechocystis treated with analogues grown photomixotrophically and photoautotrophically. Wild-type Synechocystis was grown in BG-11 and either with 5 mM glucose for photomixotrophic or w/o for photoautotrophic with treatment of either 0, 10 or 25 μM of the corresponding methylplastoquinone analog w/ 0.095% EtOH final and grown at a continuous light intensity of 50μ photons m^−2s^−1 at 30° C. with shaking 125 rpm. Data are means of 2 biological replicates ±SD.
Several analogues of Methylplastoquinone (FIG. 14) were tested for their ability to act as herbicides. Synechocystis were grown photomixotrophically (BG-11 plus 5 mM glucose) and photoautotrophically (BG-11 without glucose) at a continuous light intensity of 50μ photons m^−2s^−1 at 30° C. with shaking 125 rpm. The cultures were further treated with 0, 10, or 25 μM Doruquinone (DQ), 2,6-dimethly-1,4-benzoquinone (DMBQ), 2,6-dimethoxy-1,4-benzoquinone (DMOBQ), 2,6-dichloro-1,4-benzoquinone (DCBQ), or 2-chloro-1,4-benzoquinone (CBQ), each with […] ethanol.

[2] = tested on: Synechocystis; experiment: Accumulation of methyl-plastoquinone-9 in COQ5-expressing Synechocystis DPhQ-MT knockout cells; format: cell-based, Synechocystis sp. PCC 6803; details: especially when cultured photoautotrophically; clones evolve suppressor mutations in COQ5
Text: For expression in Synechocystis, gene sll1653 and N-terminally truncated versions of At5g57300 (S23→M23) and At1g23360 (V28→M28) cDNAs were PCR amplified using primers that contained the NdeI(5′) and BglII(3′) restriction sites. PCR fragments were cloned into NdeI/BglII-digested pSynExp-2 expression vector (Sattler S E et al. “Characterization of tocopherol cyclases from higher plants and cyanobacteria. Evolutionary implications for tocopherol synthesis and function.” Plant Physiol. 132, 2184-2195 (2003)), and the resulting constructs were introduced into Synechocystis Δsll1653::aadA knockout cells (Lohmann A et al. 2006). Transformed cells were selected on BG-11 plates containing and chloramphenicol ([…]), and spectinomycin (15 μg/ml) at 22° C. in 12-hour days (70 μE m^−2s^−1). […] Induction and analyses of chlorophyll fluorescence were performed on one month-old dark-adapted plants using a FluorCam 800 MF imaging system (Photon Systems Instruments).
To further investigate why clade 2 C-methyltransferases evolved strict substrate preference, the effect of replacing cognate cyanobacterial and plastid-targeted DPhQ-MT with a bifunctional COQ5 counterpart was examined. […] These constructs were then introduced into a Synechocystis DPhQ-MT knockout strain and the growth of individual clones was scored via serial dilution assays (FIG. 3 A-B).

[3] = tested on: Arabidopsis; experiment: Accumulation of methyl-plastoquinone-9 in dexamethasone-induced plastid-targeted COQ5 Arabidopsis transgenics; format: in vivo, Arabidopsis thaliana; details: transgenics are seedling lethal
[4] = tested on: Arabidopsis; experiment: Growth of Arabidopsis plants on MS medium containing the compound; format: in vivo, Arabidopsis thaliana (Col-0); details: 1% sucrose, 10-100 μM, applied at 2 to 50 times lower concentrations than standard herbicides such as DCMU or glyphosate
Protocol: as §1
Ten day-old Arabidopsis plants (Col-0) were grown on MS medium containing 1% sucrose (w/v), 0.095% EtOH, and 0, 10, 25, 50 or 100 μM methyl-plastoquinone analogues in 12-h days (photon flux of 110 μmol m^−2s^−1) at 22° C.

Row | SMILES | growth inhibition of Synechocystis sp. PCC6803 cells ([1]; 25 microM) | inhibitory activity on growth of Synechocystis sp. PCC6803 cells (overall grade) [1] | growth inhibition of Synechocystis sp. PCC6803 cells ([1]; 10 microM) | also measured
1 | CC1=CC(=O)C=C(C)C1=O [2,6-dimethyl-1,4-benzoquinone] | complete growth inhibition | intermediate inhibitory activity | – | –
2 | O=C1C=CC(=O)C(Cl)=C1 [2-chloro-1,4-benzoquinone] | complete growth inhibition | as effective as duroquinone | complete growth inhibition | –
3 | COC1=CC(=O)C=C(OC)C1=O [2,6-dimethoxy-1,4-benzoquinone] | – | low to marginal inhibitory activity | – | –
4 | O=C1C=C(Cl)C(=O)C(Cl)=C1 [2,6-dichloro-1,4-benzoquinone] | – | low to marginal inhibitory activity | – | –
5 | CC(C)=CCCC(C)=CCCC(C)=CCCC(C)=CCCC(C)=CCCC(C)=CCCC(C)=CCCC(C)=CCC/C(C)=C/CC1=C(C)C(=O)C(C)=C(C)C1=O [methyl-plastoquinone-9] | – | – | – | toxicity of accumulation in Synechocystis COQ5 transformants [2]: acutely toxic; toxicity of accumulation in Arabidopsis COQ5 transgenics [3]: acutely toxic
6 | CC1=C(C)C(=O)C(C)=C(C)C1=O [duroquinone] | complete growth inhibition | – | complete growth inhibition | toxicity in Arabidopsis [4]: marked toxicity
